Experimental data taken from patent US20070098782A1, “Ramipril Formulation” (Selamine Limited, priority 2005, published 2007).
Values belong to the compound of their own block, whether it stands above or below them.

Assays:
[1] = 1 mg/ml ramipril solution in buffer, principal impurity after 12 hours at 50° C.; type: physicochemical
Method: An experiment was carried out in which 50 mg of ramipril was dispersed in 50 ml water and known concentrations of buffer were added. The solutions were placed in a stoppered bottle and stored for 12 hours at 50° C.

[2] = molecular target: angiotensin converting enzyme (ACE) (Homo sapiens, UniProt P12821); conditions: cited from earlier work
[3] = buffer Sodium carbonate 0.24 mg/ml
[4] = buffer Sodium carbonate 0.74 mg/ml
[5] = buffer Sodium carbonate 1.00 mg/ml
[6] = buffer Sodium citrate 0.72 mg/ml
[7] = buffer Sodium citrate 1.00 mg/ml
[8] = buffer Sodium citrate 1.90 mg/ml

Chain of angiotensin converting enzyme (ACE) (P12821 30-1306, species assumed): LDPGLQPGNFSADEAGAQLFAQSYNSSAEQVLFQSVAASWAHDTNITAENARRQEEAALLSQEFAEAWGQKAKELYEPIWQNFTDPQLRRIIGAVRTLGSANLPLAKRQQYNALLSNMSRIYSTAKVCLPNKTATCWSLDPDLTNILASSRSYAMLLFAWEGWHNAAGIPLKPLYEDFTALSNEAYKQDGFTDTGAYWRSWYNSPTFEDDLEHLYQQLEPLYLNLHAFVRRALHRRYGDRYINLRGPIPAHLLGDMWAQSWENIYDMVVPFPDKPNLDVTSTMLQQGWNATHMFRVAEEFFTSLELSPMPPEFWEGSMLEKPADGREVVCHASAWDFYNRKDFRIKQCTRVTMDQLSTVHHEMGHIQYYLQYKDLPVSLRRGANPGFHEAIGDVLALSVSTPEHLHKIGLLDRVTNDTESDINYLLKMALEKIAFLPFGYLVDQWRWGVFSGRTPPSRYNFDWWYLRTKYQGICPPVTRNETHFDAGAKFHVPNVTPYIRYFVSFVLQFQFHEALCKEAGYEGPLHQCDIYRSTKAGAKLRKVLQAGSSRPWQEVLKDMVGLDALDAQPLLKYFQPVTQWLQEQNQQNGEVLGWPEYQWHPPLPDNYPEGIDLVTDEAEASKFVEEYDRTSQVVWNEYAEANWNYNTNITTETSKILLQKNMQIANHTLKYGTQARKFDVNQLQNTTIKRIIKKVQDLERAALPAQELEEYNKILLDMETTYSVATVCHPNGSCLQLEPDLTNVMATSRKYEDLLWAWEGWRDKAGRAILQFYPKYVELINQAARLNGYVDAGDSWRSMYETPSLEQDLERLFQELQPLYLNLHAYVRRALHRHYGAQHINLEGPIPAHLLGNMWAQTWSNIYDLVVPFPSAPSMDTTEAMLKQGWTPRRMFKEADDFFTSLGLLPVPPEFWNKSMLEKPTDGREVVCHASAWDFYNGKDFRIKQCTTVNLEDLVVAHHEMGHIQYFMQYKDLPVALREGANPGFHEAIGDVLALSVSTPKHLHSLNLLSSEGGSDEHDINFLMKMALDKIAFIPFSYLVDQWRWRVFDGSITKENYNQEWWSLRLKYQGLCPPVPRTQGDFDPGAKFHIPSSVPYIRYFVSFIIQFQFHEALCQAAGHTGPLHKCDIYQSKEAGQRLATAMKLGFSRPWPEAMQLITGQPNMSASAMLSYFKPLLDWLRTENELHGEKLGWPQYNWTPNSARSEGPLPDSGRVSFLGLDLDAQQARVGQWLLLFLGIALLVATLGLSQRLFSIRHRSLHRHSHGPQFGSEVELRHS

Impurity D ([1]; buffer L arginine 1.44 mg/ml): 0.16% | Impurity E ([1]; buffer L arginine 1.44 mg/ml): 13.7% | Impurity D [1, 3]: 0.22% | Impurity E [1, 3]: 9.9% | Impurity D [1, 4]: 0.19% | Impurity E [1, 4]: 11.3% | Impurity D [1, 5]: 0.17% | Impurity E [1, 5]: 15.2% | Impurity D [1, 6]: 0.22% | Impurity E [1, 6]: 8.2% | Impurity D [1, 7]: 0.23% | Impurity E [1, 7]: 8.4% | Impurity D [1, 8]: 0.20% | Impurity E [1, 8]: 7.5%
Compound: CCOC(=O)[C@H](CCc1ccccc1)N[C@@H](C)C(=O)N1[C@H](C(=O)O)C[C@@H]2CCC[C@@H]21 [Ramipril, (2S,3aS,6aS)-1[(S)-N-[(S)-1-carboxy-3-phenylpropyl]alanyl] octahydrocyclopenta[b]pyrrole-2-carboxylic acid, 1-ethyl ester]

Compound: C[C@H](N[C@@H](CCc1ccccc1)C(=O)O)C(=O)N1[C@H](C(=O)O)C[C@@H]2CCC[C@@H]21 [ramiprilat]
potency as an ACE inhibitor relative to the parent compound ramipril ([2]; compared with ramipril): up to 6 times

Compound: ramipril diketopiperazine
activity as an ACE inhibitor [2]: not active
